The source made the active and inactive calls.
Key:
[1] = Trypanosoma cruzi growth suppression in host cells – NIH3T3 host cells, beta-gal luminescence, confirmation (AID 2044); assay type: functional, cell-based;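 further: intracellular parasites grown in NIH/3T3 mouse fibroblasts as host cells; luminescent beta-galactosidase reporter signal from transgenic T. cruzi replicating inside host cells; inhibitors lower the luminescence signal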
[2] = microbe, parasite or virus in culture; assay type: functional; conditions: Mycobacterium tuberculosis
[3] = NIH3T3 cell viability loss – ATP luminescence, mouse fibroblasts, counter-screen, dose response (AID 2010); assay type: functional, cell-based;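 further: cells exposed to compound for about 90 hours before reading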
[4] = target: T1, RNA-binding protein pos-1 (Caenorhabditis elegans, UniProt G5EF15); assay: disruptors of C. elegans POS-1 RNA interaction – biochemical, fluorescence polarization, dose response (AID 1964);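 further: purified POS-1 fused to maltose binding protein made in E. coli; potency of compounds blocking POS-1 binding to fluorescent RNA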
T1 sequence (G5EF15 whole entry): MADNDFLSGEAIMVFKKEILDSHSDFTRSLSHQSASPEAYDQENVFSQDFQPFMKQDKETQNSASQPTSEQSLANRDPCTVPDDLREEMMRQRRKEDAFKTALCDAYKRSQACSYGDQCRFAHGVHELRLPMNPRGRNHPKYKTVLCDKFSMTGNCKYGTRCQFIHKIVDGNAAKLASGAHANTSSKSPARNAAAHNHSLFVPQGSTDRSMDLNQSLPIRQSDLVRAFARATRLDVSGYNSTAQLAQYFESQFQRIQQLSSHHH

[5] = target: T2, Zinc finger protein mex-5 (Caenorhabditis elegans, UniProt Q9XUB2); assay: potency of MEX-5 RNA-binding blockers – biochemical, C. elegans, fluorescence polarization, dose response (AID 1960)
T2 sequence (Q9XUB2 whole entry): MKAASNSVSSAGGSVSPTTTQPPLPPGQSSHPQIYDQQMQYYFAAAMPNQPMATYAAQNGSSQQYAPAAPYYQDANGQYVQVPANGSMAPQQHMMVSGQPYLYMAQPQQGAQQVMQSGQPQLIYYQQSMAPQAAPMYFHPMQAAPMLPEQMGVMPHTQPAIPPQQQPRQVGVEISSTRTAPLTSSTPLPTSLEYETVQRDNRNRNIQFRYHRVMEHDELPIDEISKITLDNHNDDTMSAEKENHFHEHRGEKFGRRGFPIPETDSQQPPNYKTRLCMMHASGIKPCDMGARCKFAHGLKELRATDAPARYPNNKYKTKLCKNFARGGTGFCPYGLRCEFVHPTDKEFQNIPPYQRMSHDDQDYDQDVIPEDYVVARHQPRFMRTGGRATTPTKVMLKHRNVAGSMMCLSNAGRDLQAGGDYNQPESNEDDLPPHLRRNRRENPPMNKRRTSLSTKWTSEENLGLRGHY

Nonstructural protein 1 = Nonstructural protein 1 (Influenza A virus, UniProt Q194T2); assay type: functional, Influenza A virus (A/California/07/2009(H1N1))
Nonstructural protein 1, sequence (Q194T2 whole entry): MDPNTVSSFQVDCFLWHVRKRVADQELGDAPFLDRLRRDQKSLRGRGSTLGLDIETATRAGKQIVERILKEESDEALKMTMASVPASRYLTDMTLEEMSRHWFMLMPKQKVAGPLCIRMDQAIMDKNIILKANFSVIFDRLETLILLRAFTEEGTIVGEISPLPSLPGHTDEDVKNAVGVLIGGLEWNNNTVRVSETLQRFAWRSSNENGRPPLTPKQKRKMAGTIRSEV

[6] = Luminescence-based counterscreen assay for KLF5 inhibitors: dose response cell-based high throughput screening assay to identify cytotoxic compounds using the IEC-6 intestinal epithelial cell line. [Related pubchem assays: 1700 (Primary screen.), 1834 (Confirmation screen.), 1858 (Summary AID.), 1905 (Counterscreen.)]; assay type: functional
[7] = HEK-293T viability loss after treatment – luminescence, T-cell screen hits, cytotoxicity control for TCR NF-kB inhibitor project, dose response (AID 489026); assay type: functional, cell-based;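 further: cells exposed to compound about 14 hours before the viability readout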
[8] = target: Glyceraldehyde-3-phosphate dehydrogenase (Homo sapiens, UniProt P04406)
Glyceraldehyde-3-phosphate dehydrogenase, sequence (P04406 whole entry): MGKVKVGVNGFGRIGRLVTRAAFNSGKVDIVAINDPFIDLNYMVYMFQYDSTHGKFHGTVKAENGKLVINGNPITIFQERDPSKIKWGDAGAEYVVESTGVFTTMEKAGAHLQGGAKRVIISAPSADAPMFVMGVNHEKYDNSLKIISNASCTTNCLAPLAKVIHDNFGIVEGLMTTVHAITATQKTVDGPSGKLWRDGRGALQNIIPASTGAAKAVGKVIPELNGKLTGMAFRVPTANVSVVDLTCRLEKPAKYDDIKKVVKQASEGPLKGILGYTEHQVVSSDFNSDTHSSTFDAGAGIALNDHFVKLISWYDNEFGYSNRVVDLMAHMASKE

[9] = target: T3, Alkaline phosphatase, tissue-nonspecific isozyme (Homo sapiens, UniProt P05186); assay: potency against alkaline phosphatase TNAP – biochemical, luminescent, dose response, SAR follow-up (AID 1056)
T3 sequence (P05186 whole entry): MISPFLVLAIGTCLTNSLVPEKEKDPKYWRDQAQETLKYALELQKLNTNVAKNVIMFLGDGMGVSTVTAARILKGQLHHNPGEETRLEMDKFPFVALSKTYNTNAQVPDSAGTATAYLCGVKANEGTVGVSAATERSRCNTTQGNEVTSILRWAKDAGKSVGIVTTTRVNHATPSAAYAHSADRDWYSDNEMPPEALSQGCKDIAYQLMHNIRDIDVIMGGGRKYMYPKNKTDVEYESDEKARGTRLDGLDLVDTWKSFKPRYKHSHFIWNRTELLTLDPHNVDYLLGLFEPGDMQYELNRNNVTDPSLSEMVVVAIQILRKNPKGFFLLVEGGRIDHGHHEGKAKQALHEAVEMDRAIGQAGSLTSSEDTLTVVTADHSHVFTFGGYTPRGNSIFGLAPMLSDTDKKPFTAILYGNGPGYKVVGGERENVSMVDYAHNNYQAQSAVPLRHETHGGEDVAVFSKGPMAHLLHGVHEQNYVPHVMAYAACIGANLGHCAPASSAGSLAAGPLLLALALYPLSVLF

CAAX prenyl protease 2 = target: T4, CAAX prenyl protease 2 (Saccharomyces cerevisiae S288c, UniProt Q03530); assay type: biochemical
T4 sequence (Q03530 whole entry): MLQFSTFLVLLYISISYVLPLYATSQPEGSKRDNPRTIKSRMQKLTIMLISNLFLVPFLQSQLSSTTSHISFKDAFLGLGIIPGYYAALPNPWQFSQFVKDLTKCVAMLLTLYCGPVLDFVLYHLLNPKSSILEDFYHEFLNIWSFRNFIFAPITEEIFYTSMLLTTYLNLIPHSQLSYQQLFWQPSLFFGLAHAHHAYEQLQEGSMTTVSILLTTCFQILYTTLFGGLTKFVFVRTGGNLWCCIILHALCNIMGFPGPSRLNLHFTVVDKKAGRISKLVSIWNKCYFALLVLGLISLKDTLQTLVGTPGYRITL

Melanocortin receptor 4 = Melanocortin receptor 4 (Homo sapiens, UniProt P32245); assay: inhibitors of MC4R cAMP signaling – cell-based, TR-FRET, biased antagonists, dose response (AID 602298); assay type: functional;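 further: antagonist potency against agonist-stimulated cAMP production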
Melanocortin receptor 4, sequence (P32245 whole entry): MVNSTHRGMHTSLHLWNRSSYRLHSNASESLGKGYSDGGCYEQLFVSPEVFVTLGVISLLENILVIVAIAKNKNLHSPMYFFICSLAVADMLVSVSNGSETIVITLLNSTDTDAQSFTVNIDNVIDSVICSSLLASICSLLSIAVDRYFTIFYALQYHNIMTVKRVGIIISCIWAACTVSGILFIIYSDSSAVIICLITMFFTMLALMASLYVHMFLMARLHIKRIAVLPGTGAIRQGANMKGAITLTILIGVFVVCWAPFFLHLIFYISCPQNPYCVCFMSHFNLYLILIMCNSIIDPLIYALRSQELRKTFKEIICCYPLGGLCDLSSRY

[10] = cAMP pathway inhibition in counterscreen cell line – TR-FRET cAMP detection, counter-screen for MC4R biased antagonist project, dose response (AID 602305); assay type: functional, cell-based;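 further: U2OS cells stimulated with forskolin near its EC80 as the cAMP inducer; potency is for inhibition of forskolin-stimulated cAMP signaling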
[11] = target: G-protein coupled receptor 55 (Homo sapiens, UniProt Q9Y2T6); assay: inhibition of LPI-stimulated GPR55 beta-arrestin translocation – imaging, U2OS, beta-arrestin-GFP, LPI agonist, primary screen (AID 2013); assay type: functional;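 further: antagonist potency measured as reduced agonist-driven arrestin aggregation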
G-protein coupled receptor 55, sequence (Q9Y2T6 whole entry): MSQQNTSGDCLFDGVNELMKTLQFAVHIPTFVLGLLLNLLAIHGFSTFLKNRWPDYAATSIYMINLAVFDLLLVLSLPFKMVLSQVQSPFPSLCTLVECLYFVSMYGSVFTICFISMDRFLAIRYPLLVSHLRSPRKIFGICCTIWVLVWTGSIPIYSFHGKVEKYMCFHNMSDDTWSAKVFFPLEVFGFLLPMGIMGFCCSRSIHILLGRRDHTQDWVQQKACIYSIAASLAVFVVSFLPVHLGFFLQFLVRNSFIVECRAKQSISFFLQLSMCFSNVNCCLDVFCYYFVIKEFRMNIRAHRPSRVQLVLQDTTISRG

Vero = assay: cells; assay type: functional; conditions: Chlorocebus sabaeus
[12] = Luminescence Cell-Based Dose Response to Identify Activators of 5'UTR Stem-Loop Driven Prion Protein mRNA Translation in H4-C Neuroglioblastoma Cells. [Related pubchem assays: 1829 (Project Summary), 1814 (Primary HTS)]; assay type: functional
[13] = Luminescence Cell-Based Dose Confirmation HTS to Identify Activators of 5'UTR Stem-Loop Driven Alpha-Synuclein mRNA Translation in H4 Neuroglioblastoma Cells. [Related pubchem assays: 1829 (Project Summary), 1814 (Primary HTS)]; assay type: functional
[14] = Luminescence Cell-Based Dose Response HTS to Identify Activators of Luciferase Translation or Activity in H4 […] Cells. [Related pubchem assays: 1829 (Project Summary), 1814 (Primary HTS)]; assay type: functional
H4 = assay: Luminescence Cell-Based Dose Response HTS to Identify Activators of 5'UTR Stem-Loop Driven Prion Protein mRNA Translation in H4 Neuroglioblastoma Cells. [Related pubchem assays: 1829 (Project Summary), 1814 (Primary HTS)]; assay type: functional; conditions: Homo sapiens
[15] = Luminescence Cell-Based Dose Response to Identify Activators of Luciferase Translation or Activity in H4-C Neuroglioblastoma Cells. [Related pubchem assays: 1829 (Project Summary), 1814 (Primary HTS)]; assay type: functional
[16] = Luminescence Cell-Based Dose Confirmation to Identify Activators of 5'UTR Stem-Loop Driven Alpha-Synuclein mRNA Translation in H4 Neuroglioblastoma Cells. [Related pubchem assays: 1829 (Project Summary), 1814 (Primary HTS)]; assay type: functional
Estrogen receptor beta = Estrogen receptor beta (Homo sapiens, UniProt Q92731); assay: blockers of SRC-3 recruitment to ERβ – biochemical, ELISA, streptavidin-HRP readout, orthogonal assay, confirmation (AID 1060)
Estrogen receptor beta, sequence (Q92731 whole entry): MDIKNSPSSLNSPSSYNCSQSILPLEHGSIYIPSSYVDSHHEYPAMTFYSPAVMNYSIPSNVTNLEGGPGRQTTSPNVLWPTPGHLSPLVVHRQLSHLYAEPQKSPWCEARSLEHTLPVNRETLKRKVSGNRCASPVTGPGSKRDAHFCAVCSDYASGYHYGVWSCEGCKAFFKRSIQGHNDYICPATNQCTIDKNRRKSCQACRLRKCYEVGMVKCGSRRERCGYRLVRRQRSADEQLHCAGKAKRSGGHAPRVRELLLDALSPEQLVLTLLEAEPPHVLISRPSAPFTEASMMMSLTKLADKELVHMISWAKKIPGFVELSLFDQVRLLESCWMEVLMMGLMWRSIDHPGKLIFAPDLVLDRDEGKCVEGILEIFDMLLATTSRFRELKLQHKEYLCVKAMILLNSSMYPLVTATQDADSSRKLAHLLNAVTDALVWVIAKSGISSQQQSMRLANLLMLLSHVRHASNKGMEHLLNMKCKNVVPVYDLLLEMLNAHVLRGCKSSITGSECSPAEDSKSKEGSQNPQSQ

[17] = target: T5, Ubiquitin-conjugating enzyme E2 N (Homo sapiens, UniProt P61088); assay type: functional;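 further: Dose-response confirmation in a TR-FRET assay detecting UBC13-driven polyubiquitin chain formation, inhibition measured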
T5 sequence (P61088 whole entry): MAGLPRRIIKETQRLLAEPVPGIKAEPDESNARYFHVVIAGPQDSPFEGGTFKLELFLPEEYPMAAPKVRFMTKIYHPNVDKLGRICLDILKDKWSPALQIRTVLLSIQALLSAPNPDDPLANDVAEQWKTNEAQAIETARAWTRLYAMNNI

[18] = viability of uninfected HEp-2 cells – cell-based, HTS, cytotoxicity control for RSV inhibitor project, dose response (AID 2410); assay type: functional; conditions: human respiratory syncytial virus
[19] = system: Streptococcus sp. 'group A'; assay: Streptococcus pyogenes SK(-)GAS viability under kanamycin – luminescence, BacTiterGlo, confirmation, counter-screen for streptokinase expression inhibitor project, dose response (AID 1900); assay type: functional, organism-based
Streptokinase A = target: T6, Streptokinase A (Streptococcus pyogenes serotype M1, UniProt P10520); assay: viability-normalized secreted streptokinase activity reduction – plasminogen activation absorbance, OD405, dose response (AID 1914); assay type: functional, Streptococcus pyogenes M1 GAS;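 further: secreted streptokinase activity via plasminogen activation per viability signal from cell pellet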
T6 sequence (P10520 whole entry): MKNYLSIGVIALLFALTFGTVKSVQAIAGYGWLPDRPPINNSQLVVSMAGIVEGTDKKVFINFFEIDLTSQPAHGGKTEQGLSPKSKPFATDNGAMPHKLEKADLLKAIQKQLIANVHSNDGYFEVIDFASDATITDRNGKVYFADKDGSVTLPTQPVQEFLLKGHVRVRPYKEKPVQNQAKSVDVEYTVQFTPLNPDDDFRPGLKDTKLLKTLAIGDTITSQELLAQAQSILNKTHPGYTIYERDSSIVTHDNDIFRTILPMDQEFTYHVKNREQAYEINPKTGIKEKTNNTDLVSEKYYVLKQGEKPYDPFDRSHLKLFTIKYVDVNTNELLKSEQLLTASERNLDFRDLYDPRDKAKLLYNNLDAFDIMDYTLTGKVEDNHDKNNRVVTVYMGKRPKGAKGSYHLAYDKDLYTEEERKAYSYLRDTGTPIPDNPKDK

Streptococcus = assay: GAS UMAA2166 growth inhibition – luminescence, BacTiterGlo, counter-screen for streptokinase expression inhibitor project, dose response (AID 1915); assay type: functional, organism-based;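 further: potency for reduction of bacterial viability or growth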
cells [20] = assay type: functional, cell-based
cells [21] = assay type: functional, cell-based; remark: listed apart in the source
Fatty acid synthase [22] = target: T7, Fatty acid synthase (Homo sapiens, UniProt P49327); assay: inhibition of human FAS-TE enzyme activity – biochemical, endpoint fluorescence intensity, uHTS hits, dose response (AID 624327); assay type: functional;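 further: fluorescence from hydrolysis of an O-methyl fluorescein acyl ester substrate by the enzyme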
T7 sequence (P49327 whole entry): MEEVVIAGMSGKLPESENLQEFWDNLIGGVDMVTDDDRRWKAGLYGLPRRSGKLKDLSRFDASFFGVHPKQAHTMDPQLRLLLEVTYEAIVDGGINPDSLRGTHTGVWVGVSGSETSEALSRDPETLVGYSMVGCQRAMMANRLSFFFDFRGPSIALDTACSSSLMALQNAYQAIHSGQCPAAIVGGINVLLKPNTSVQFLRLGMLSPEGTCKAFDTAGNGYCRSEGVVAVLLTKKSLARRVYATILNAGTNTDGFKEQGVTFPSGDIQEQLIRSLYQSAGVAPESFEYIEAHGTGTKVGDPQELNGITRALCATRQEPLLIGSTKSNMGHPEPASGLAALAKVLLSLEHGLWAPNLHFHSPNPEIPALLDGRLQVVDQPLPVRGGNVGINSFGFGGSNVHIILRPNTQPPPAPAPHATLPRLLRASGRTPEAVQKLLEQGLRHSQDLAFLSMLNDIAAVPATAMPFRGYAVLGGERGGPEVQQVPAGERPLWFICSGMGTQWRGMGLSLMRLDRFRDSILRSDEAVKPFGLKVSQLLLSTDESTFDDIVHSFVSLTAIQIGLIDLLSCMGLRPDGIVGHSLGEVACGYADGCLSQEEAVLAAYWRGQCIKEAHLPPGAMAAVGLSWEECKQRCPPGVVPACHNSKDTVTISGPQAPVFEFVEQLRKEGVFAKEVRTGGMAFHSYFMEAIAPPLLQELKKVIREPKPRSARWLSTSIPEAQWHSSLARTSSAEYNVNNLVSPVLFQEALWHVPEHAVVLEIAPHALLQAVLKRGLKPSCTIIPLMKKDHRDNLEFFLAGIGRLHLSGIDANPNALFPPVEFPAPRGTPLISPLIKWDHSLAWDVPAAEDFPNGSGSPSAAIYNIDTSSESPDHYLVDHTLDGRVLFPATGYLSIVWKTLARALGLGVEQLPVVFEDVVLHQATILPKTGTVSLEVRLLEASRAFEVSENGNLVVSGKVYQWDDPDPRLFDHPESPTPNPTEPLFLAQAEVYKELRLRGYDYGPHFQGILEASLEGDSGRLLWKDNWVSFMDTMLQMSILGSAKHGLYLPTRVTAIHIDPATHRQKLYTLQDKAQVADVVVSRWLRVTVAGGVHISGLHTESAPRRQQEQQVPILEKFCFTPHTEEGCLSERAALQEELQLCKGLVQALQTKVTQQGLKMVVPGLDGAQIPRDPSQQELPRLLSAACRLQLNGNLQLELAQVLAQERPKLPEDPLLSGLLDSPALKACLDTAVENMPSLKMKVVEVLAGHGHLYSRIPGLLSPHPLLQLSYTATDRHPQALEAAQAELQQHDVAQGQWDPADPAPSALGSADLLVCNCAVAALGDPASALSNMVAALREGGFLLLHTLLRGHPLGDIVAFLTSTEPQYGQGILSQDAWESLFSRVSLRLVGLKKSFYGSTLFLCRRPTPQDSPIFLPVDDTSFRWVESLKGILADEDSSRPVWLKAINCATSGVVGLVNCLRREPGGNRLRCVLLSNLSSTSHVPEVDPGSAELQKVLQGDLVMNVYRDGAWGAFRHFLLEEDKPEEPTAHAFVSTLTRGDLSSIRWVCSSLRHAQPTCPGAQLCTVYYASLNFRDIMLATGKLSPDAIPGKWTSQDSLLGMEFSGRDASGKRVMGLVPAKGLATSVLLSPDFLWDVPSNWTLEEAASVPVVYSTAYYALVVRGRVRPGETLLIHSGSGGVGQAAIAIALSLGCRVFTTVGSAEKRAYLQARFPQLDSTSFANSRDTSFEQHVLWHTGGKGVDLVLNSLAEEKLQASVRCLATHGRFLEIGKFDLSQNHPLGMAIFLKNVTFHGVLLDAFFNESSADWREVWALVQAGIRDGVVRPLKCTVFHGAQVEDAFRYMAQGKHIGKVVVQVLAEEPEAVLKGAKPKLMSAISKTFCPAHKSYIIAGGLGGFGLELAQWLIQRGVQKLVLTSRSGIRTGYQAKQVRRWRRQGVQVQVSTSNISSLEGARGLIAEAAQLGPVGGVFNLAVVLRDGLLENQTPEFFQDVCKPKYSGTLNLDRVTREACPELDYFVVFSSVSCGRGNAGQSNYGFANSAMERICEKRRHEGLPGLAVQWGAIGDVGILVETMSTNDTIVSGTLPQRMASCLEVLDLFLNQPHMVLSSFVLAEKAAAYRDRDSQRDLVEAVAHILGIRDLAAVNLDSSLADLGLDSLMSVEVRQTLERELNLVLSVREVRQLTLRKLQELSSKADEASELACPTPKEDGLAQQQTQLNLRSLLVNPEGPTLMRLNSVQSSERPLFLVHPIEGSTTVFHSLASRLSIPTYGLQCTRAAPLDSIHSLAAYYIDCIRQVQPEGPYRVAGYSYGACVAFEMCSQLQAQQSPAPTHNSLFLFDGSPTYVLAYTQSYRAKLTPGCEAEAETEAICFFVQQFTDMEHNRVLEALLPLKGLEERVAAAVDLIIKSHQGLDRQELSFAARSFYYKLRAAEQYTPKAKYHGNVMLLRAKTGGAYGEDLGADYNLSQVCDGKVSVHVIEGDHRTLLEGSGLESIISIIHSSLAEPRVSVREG

Fatty acid synthase [23] = target: T7, Fatty acid synthase; assay: inhibition of human FAS-TE enzyme activity – biochemical, kinetic fluorescence intensity, dose response (AID 624326); assay type: functional;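 further: rate of fluorescence rise from hydrolysis of a fluorogenic O-methyl fluorescein ester substrate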

SMILES: COc1ccc(C2c3[nH]c4ccccc4c3CCN2Cc2cccn2-c2ncccn2)cc1C (configuration not stated)
- EC50 [1]: 1.28 µM (active)
- CC50 [2]: > 40 µM (active)
- EC50 [3]: > 60 µM (inconclusive)

SMILES: c1ccc(-c2nnc(-c3ccccn3)nn2)nc1
- EC50 [4]: > 300 µM (not active)
- EC50 [5]: 49.8 µM (inconclusive)
- CC50 [2]: 34.2 µM (active)
- IC50 (Nonstructural protein 1): 12.6 µM (active)

SMILES: CCOC(=O)c1sc(NC(=O)c2ccc3ncsc3c2)nc1C
- IC50 [6]: > 39.8 µM (not active)

SMILES: CCn1ncc(C2=NOC(C(=O)NCc3ccccc3)C2)c1C (configuration not stated)
- IC50 [7]: > 80 µM (inactive)

SMILES: COc1cccc(S(=O)(=O)Nc2ccncn2)c1
- IC50 [8]: > 100 µM (not active)
- IC50 [9]: > 100 µM (inactive)

SMILES: O=C(Nc1ccccc1-c1nc2ccccc2[nH]1)c1ccc(N2C(=O)CCC2=O)cc1
- AC50 (CAAX prenyl protease 2): 75.6 µM (active)
- IC50 (Melanocortin receptor 4): > 21.5 µM (inactive)
- IC50 [10]: > 64.6 µM (inactive)

SMILES: N#CC1=C2N=C(N)c3ccccc3N2C2=C(C(=O)CCC2)C1c1cccc(Cl)c1 (configuration not stated)
- IC50 [11]: 8.48 µM (active)

SMILES: CN(C)c1cc(O)c(C(S)=Nc2ccccc2)c(N(C)C)c1
- AC50 (CAAX prenyl protease 2): 52.2 µM (active)

SMILES: CCC1(c2ccccc2)ON(c2c(Br)cccc2Br)C1=O (configuration not stated)
- CC50 [2]: 21.4 µM (active)
- CC50 (Vero): > 25 µM (active)

SMILES: C/C(=N\OC(=O)c1ccc(F)cc1)c1sc(-c2ccc(Cl)cc2)nc1C
- EC50 [12]: 0.301 µM (active)
- EC50 [13]: < 0.1 µM (active)
- EC50 [14]: 0.122 µM (active)
- EC50 (H4): < 0.1 µM (active)
- EC50 [15]: 0.37 µM (active)
- EC50 [16]: 0.236 µM (active)

SMILES: Cc1c(C(=O)O)nnn1-c1ccc(Cl)cc1
- IC50 [8]: > 100 µM (not active)
- IC50 [9]: > 100 µM (inactive)

SMILES: CCCc1cc(O)nc(SCC(=O)Nc2ccc(C(=O)OC)cc2)n1
- IC50 (Estrogen receptor beta): > 50 µM (not active)

SMILES: O=C(NC(=S)Nc1ccccc1N1CCOCC1)c1ccc(Br)cc1
- IC50 [11]: 1.08 µM (active)

SMILES: CCOC(=O)c1c(C(C)(C)C)oc2ccc(O)cc12
- IC50 [11]: 4.47 µM (active)
- IC50 [17]: > 20 µM (inactive)

SMILES: Cn1cnnc1SCc1ccc(C(=O)N=Nc2c(O)n(Cc3ccc(Cl)cc3)c3ccccc23)cc1
- CC50 [18]: 16.5 µM (active)
- EC50 [19]: 3.12 µM (active)
- EC50 (Streptokinase A): 18 µM (inconclusive)
- CC50 [2]: 21.2 µM (active)
- EC50 (Streptococcus): > 150 µM (not active)

SMILES: CN1CCN(Cc2c(C(=O)N/N=C/c3cccc(Br)c3)nnn2-c2nonc2N)CC1
- AC50 (CAAX prenyl protease 2): 2.08 µM (active)
- CC50 (Vero): 10.1 µM (active)

SMILES: O=C(Nc1ncc(Cc2ccccc2)s1)C1COc2ccccc2O1 (configuration not stated)
- EC50 [12]: 0.179 µM (active)
- EC50 [14]: < 0.1 µM (active)
- EC50 [15]: 11.4 µM (active)
- EC50 [16]: 0.465 µM (active)

SMILES: Cc1ccc(C(=O)N/N=C/c2cc(Br)ccc2O)cn1
- EC50 [19]: 3.17 µM (active)
- EC50 (cells [20]): 16.1 µM (active)
- IC50 [6]: 5.56 µM (active)
- EC50 (cells [21]): > 350 µM (not active)
- EC50 (Streptococcus): 5.99 µM (active)
- IC50 (Nonstructural protein 1): 12.3 µM (active)

SMILES: CC(C)(CNC(=O)c1ccc([N+](=O)[O-])c(Cl)c1)CNC(=O)c1ccc([N+](=O)[O-])c(Cl)c1
- IC50 [11]: 3.11 µM (active)
- IC50 (Melanocortin receptor 4): > 64.6 µM (inactive)
- IC50 [10]: > 64.6 µM (inactive)
- IC50 (Fatty acid synthase [22]): 5.44 µM (active)
- IC50 (Fatty acid synthase [23]): 6.06 µM (active)
